In US20260306525A1, “COMBINATION THERAPY GLUCOCORTICOIDS AND GINSENOSIDE” (FYTAGORAS B.V., priority 2023, published 2026):

What was measured:
il8 = assay: qPCR il8 expression in zebrafish larvae; assay type: in vivo, zebrafish (Danio rerio); conditions: Example 2, wounded larvae
Procedure: (§1) To determine mRNA levels of specific genes in zebrafish, 3 dpf larvae were used (wounded and non-wounded) and after 6 h of chemical treatments (2 h pre-wounding, 4 h post-wounding), as indicated. Per sample, groups of 15 larvae were collected in TRIzol reagent (Thermo Fisher Scientific, Waltham, MA, USA), and total RNA was isolated using the miRNeasy mini kit (Qiagen, Hilden, Germany). For similar experiments in Hela cells, cells were seeded in 6 well plates, and after 6 h of chemical treatment, the cells were removed from the wells using TRIzol reagent, and total RNA was isolated using the miRNeasy mini kit according to the manufacturer's instructions. The RNA samples were DNAse-treated utilizing the DNA-free™ DNA Removal Kit (Thermo Fisher Scientific). The cDNA synthesis was performed using the iScript cDNA synthesis kit (Bio-Rad Laboratories, Hercules, CA, USA) using 1 μg of RNA per sample. For the PCR reactions, 10 μM of forward and 10 μM of reverse primer, 12.5 μl of iQ SYBR Green Supermix (Bio-Rad), and 2 μl of cDNA were added to the qPCR reaction mixture. […] The reactions were performed on a MyiQ-single-color real-time PCR detection system (Bio-Rad Laboratories) with initial denaturation for 3 min at 95° C. and 40 cycles of 15 s at 95.5° C., 15 s at 60° C., and 30 s at 72° C. Cycle threshold values (Ct values, i.e. the cycle numbers at which a threshold value of the fluorescence intensity was reached) were determined for each sample. The gene expression level for each sample was normalized using the expression of ppial (peptidylprolyl isomerase Ab (cyclophilin A)) for zebrafish samples, 18S rRNA for human cells. The fold change per sample (compared to the respective control group) was calculated using the ΔΔCt method.

fkbp5 = assay: qPCR fkbp5 expression in zebrafish larvae; assay type: in vivo, zebrafish (Danio rerio)
Procedure: (§2) […] Groups of 15 larvae were collected in TRIzol reagent (ThermoFisher) and total RNA was isolated using miRNeasy mini kit (Qiagen, Hilden, Germany). For experiments in HeLa cells, cells were seeded in 6 well plates and after treatment, the cells were removed from the wells using TRIzol reagent and mRNA was isolated using miRNeasy mini kit (Qiagen) according to the manufacturer's instructions. The RNA samples were DNAse-treated utilizing the DNA-free™ DNA Removal Kit (ThermoFisher Scientific). The cDNA synthesis was performed using the iScript cDNA synthesis kit (Bio-Rad Laboratories, Hercules, CA, USA) using 1 μg of RNA per sample. For qPCR, 10 μM of forward primer and 10 μM of reverse primer, 12.5 μl of IQ SYBR Green Supermix (Bio-Rad Laboratories), and 2 μl of cDNA were added to the qPCR reaction mixture. […] The qPCR reactions were performed on a MyiQ-single-color real-time PCR detection system (Bio-Rad Laboratories), with initial denaturation for 3 min, 95° C., and 40 cycles of 15 s at 95.5° C., 15 s at 60° C., and 30 s at 72° C. Cycle threshold values (Ct values, i.e. the cycle numbers at which a threshold value of the fluorescence intensity was reached) were determined for each sample. The gene expression level for each sample was normalized using the expression of ppial (peptidylprolyl isomerase Ab (cyclophilin A)) for zebrafish samples, and 18S rRNA for human cells. The fold change per sample (compared to the respective control group) was calculated using the […]Ct method.
as §1, with “To determine mRNA levels of specific genes in zebrafish, 3 dpf larvae were used (wounded and non-wounded) and after 6 h of chemical treatments (2 h pre-wounding, 4 h post-wounding), as indicated.” left out

pck1 = assay: qPCR pck1 expression in zebrafish larvae; assay type: in vivo, zebrafish (Danio rerio)
Procedure: as §2
as §1, with “To determine mRNA levels of specific genes in zebrafish, 3 dpf larvae were used (wounded and non-wounded) and after 6 h of chemical treatments (2 h pre-wounding, 4 h post-wounding), as indicated.” left out

nfkbiaa = assay: qPCR nfkbiaa expression in zebrafish larvae; assay type: in vivo, zebrafish (Danio rerio)
Procedure: as §2
as §1, with “To determine mRNA levels of specific genes in zebrafish, 3 dpf larvae were used (wounded and non-wounded) and after 6 h of chemical treatments (2 h pre-wounding, 4 h post-wounding), as indicated.” left out

gr = assay: Gr transactivation activity in Tg(9xGCRE-HSV.UI23:EGFP)ia20 reporter larvae; assay type: in vivo, zebrafish (Danio rerio)
Procedure: (§3) To investigate the Gr transactivation activity in zebrafish larvae, the Tg(9xGCRE-HSV.UI23:EGFP)^ia20 reporter line was used, which expresses enhanced green fluorescent protein (EGFP) under the control of a promoter containing an array of nine GREs. […] The integrated intensity of the EGFP signal in the larvae was determined using ImageJ software.
as §3, with “Tg(9xGCRE-HSV.UI23:EGFP^ia20)” for “Tg(9xGCRE-HSV.UI23:EGFP)^ia20”

zebrafish larvae [1] = assay: whole-body glucose measurement of zebrafish larvae
Procedure: In each experiment, three biological replicates were used for each treatment group, and the colorimetric assay was performed using technical duplicates.
Tail fin wounding were performed at 2 days post-fertilization (dpf). At 5 dpf, the larvae (15 per sample) were placed in egg water for 1 h and collected in an Eppendorf tube, washed in egg water (3 times for 10 min). Subsequently, 100 μL of ice-cold glucose buffer was added to each sample, and the larvae were homogenized using a BulletBlender® for 3 min at 8,000 rpm. The homogenates were then centrifuged at 4° C. for 8 min at 11,000 rpm and the supernatant was stored at −20° C. Whole-body glucose concentrations were determined using a Glucose Colorimetric Assay kit (Cayman Chemical, Ann Arbor, MI, USA), according to the manufacturer's instructions. In each experiment, three biological replicates were used for each treatment group, and the colorimetric assay was performed using technical duplicates.

zebrafish larvae [2] = assay: whole-body cortisol measurement of zebrafish larvae (ELISA)
Procedure: Ethyl acetate was added to the homogenate. The homogenates were then centrifuged at 4° C. for 8 min at 11,000 rpm and the supernatant was collected and vaporized. A volume of 150 μl of 0.2% Bovine serum albumin (Sigma-Aldrich) dissolved in PBS was added to the samples and frozen. Whole-body cortisol levels of the zebrafish larvae were determined by ELISA (Demeditec Diagnostics GmbH, Kiel-Wellsee, Germany), following the manufacturer's instructions. In each experiment, three biological replicates were used for each treatment group, and the ELISA was performed using technical duplicates.
Tail fin wounding were performed at 2 days post-fertilization (dpf). At 96hpf, the treatments were stopped, and larvae were incubated in egg water until 5 dpf to avoid cross-reactivity between the compounds and the cortisol antibody used in the ELISA. At dpf, the larvae were collected in an Eppendorf tube (30 larvae per sample), and 100 μl of ice-cold egg water was added. After the excess water had been taken out, the samples were glaciated in ethanol (EtOH)/dry-ice bath. Subsequently, the larvae were homogenized using a BulletBlender® for 3 min at 8,000 rpm. Ethyl acetate was added to the homogenate. The homogenates were then centrifuged at 4° C. for 8 min at 11,000 rpm, and the supernatant was collected and vaporized. A volume of 150 μl of 0.2% bovine serum albumin (Sigma-Aldrich) dissolved in PBS was added to the samples and frozen. Whole-body cortisol levels of the zebrafish larvae were determined using a Cortisol free in Saliva ELISA kit (Demeditec Diagnostics GmbH, Kiel-Wellsee, Germany), following the manufacturer's instructions. In each experiment, three biological replicates were used for each treatment group, and the ELISA was performed using technical duplicates.

[3] = 3 dpf, wounded larvae, 6 h, 10 μM beclomethasone, 50 μM Rg1 or combination
[4] = 5 dpf, 6 h, beclomethasone 10 μM, Rg1 50 μM or combination
[5] = 5 dpf, 5 days, beclomethasone 10 μM, Rg1 50 μM or combination
[6] = Example 2, wounded at 2 dpf, 5 dpf

With CC(C)=CCC[C@](C)(O[C@@H]1O[C@H](CO)[C@@H](O)[C@H](O)[C@H]1O)[C@H]1CC[C@]2(C)[C@@H]1[C@H](O)C[C@@H]1[C@@]3(C)CC[C@H](O)C(C)(C)[C@@H]3[C@@H](O[C@@H]3O[C@H](CO)[C@@H](O)[C@H](O)[C@H]3O)C[C@]12C [Rg1, (3β,6α, 12β)-3,12-Dihydroxydammar-24-ene-6,20-diyl bis-β-D-glucopyranoside] the il8 expression (il8) was “no effect”, the fkbp5 expression (fkbp5; [3]) was “did not affect the expression of these genes” and the “fkbp5 expression, short-term treatment” value (fkbp5; 6 h, beclomethasone 10 μM, Rg1 50 μM or combination) was “did not affect the expression of the genes”. The “fkbp5 expression, long-term treatment” value (fkbp5; 5 days, beclomethasone 10 μM, Rg1 50 μM or combination) was “did not affect the expression of the genes”, the fkbp5 expression (fkbp5; Example 2, 6 h treatment) was “did not increase the expression” and the pck1 expression (pck1; [3]) was “did not affect the expression of these genes”. For the same compound, the “pck1 expression, short-term treatment” value (pck1; [4]) was “did not affect the expression of the genes”, the “pck1 expression, long-term treatment” value (pck1; [5]) was “did not affect the expression of the genes” and the pck1 expression (pck1; Example 2, 6 h treatment) was “did not increase the expression”. The “nfkbiaa expression, short-term treatment” value (nfkbiaa; [4]) was “did not affect the expression of the genes”, the “nfkbiaa expression, long-term treatment” value (nfkbiaa; [5]) was “did not affect the expression of the genes” and the nfkbiaa expression (nfkbiaa; Example 2, 6 h treatment) was “did not increase the expression”. For the same compound, the “relative EGFP intensity (Gr transactivation)” value (gr; 24 h from 2 dpf, 10 μM GC, 50 μM Rg1 or combination) was “did not affect the EGFP signal”, the “GFP fluorescence intensity (Gr transactivation)” value (gr; Example 2, 24 h, 3 dpf) was “none of the ginsenosides PPT, F1, Rh1, and Rg1 altered the fluorescence intensity” and the “whole body glucose level” value (zebrafish larvae [1]; 0-5 dpf, 10 μM beclomethasone, 50 μM Rg1 or combination) was “did not affect the whole-body glucose and cortisol concentrations”. For the same compound, the whole-body glucose level (zebrafish larvae [1]; Example 2, non-wounded, 5 dpf) was “did not show any side effects”, the “whole-body glucose level upon wounding” value (zebrafish larvae [1]; [6]) was “still not show any effect on the glucose or cortisol level or on tissue regeneration” and the “whole body cortisol level” value (zebrafish larvae [2]; 0-4 dpf, 10 μM beclomethasone, 50 μM Rg1 or combination) was “did not affect the whole-body glucose and cortisol concentrations”. The whole-body cortisol level (zebrafish larvae [2]; Example 2, non-wounded, 5 dpf) was “did not show any side effects” and the “whole-body cortisol level upon wounding” value (zebrafish larvae [2]; [6]) was “still not show any effect on the glucose or cortisol level or on tissue regeneration”.
